Measurements from US8815872B2, “Macrocyclics pyrimidines as aurora kinase inhibitors” (Merck Patent GmbH, priority 2008, dated 2014).
Like-named read-outs stand apart in the source and are kept apart here.

How the values were obtained:
[1] = target: T1, Aurora A (Homo sapiens, UniProt O14965); test: Aurora A enzyme assay (Caliper LC3000 mobility shift); assay type: biochemical
T1 construct: N-terminal GST fusion with full length Aurora A (1-403 amino acids); purchased Carna Biosciences 05-101
T1 sequence (O14965 1-403): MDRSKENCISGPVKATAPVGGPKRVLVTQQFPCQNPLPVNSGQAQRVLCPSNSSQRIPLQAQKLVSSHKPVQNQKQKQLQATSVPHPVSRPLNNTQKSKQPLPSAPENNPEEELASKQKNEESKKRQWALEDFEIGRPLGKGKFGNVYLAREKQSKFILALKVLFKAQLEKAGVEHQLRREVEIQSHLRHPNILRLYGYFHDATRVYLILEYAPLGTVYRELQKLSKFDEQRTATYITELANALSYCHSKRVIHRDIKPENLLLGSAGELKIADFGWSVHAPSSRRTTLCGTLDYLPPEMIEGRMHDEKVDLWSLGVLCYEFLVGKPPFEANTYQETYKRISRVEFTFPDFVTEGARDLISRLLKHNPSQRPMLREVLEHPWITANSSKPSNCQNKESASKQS
Protocol: (§1) The Aurora and other kinase assays described here were performed on two Caliper Life Sciences systems, the LC3000 and the Desktop Profiler. These provide data on enzyme activity via measurement of the relative amounts of phosphorylated or unphosphorylated fluorescently labelled substrate peptide at the end of an enzymatic reaction. These different states of peptide are resolved by applying a potential difference across the sample. The presence of a charged phosphate group on the product (as opposed to the substrate) causes a different peptide mobility between the two peptides. This is visualized by excitation of a fluorescent label on the substrate and product peptides and represented as peaks within the analysis software.
For example, in order to measure inhibitor activity of Aurora A inhibitors in the Caliper Life Sciences LC3000, a TTP Mosquito liquid handling instrument was used to place […] of an appropriate concentration of inhibitor in 100% DMSO (for a dose response curve calculation) into each well of a 384-well plate. To this reaction components were added to a final volume of 25 μl: • 0.067 ng/μl GST-Aurora A (Carna Biosciences 05-101. N-terminal GST fusion with full length Aurora A (1-403 amino acids), accession number NP_940835.1). • 15 μM ATP (Fluka, 02055) • 1 mM DTT (Sigma, D0632) • 1 mM MgC12 (Sigma, M1028) • 1 μM substrate peptide (sequence FITC-LRRASLG-(CONH2), synthesized by Tufts Peptide Synthesis service. • 100 mM HEPES pH 7.5 (Calbiochem, 391338) • 0.015% Brij-35 (Sigma, B4184)
The reaction was incubated for 90 min at 25° C., and then stopped by the addition of 70 μl of Stop buffer (100 mM HEPES pH 7.5, 0.015% Brij-35, 10 mM EDTA (Sigma, E7889)).
The plate was read on a Caliper LC 3000 in an Off-Chip mobility shift assay format, using the following parameters for a 12-sipper chip: screening pressure −1.8 psi, upstream voltage −2700, downstream voltage −1000. These conditions cause unphosphorylated substrate and phosphorylated product peptide to resolve as separate peaks allowing direct measurement of percentage of conversion of substrate to product. The percent conversion was plotted against concentration of inhibitor to produce a sigmoidal dose response curve, from which an IC50 was calculated using XLFit for Microsoft Excel.

[2] = target: Aurora B (Homo sapiens, UniProt Q96GD4); test: Aurora B enzyme assay (Caliper); assay type: biochemical
Chain of Aurora B (Q96GD4 whole entry): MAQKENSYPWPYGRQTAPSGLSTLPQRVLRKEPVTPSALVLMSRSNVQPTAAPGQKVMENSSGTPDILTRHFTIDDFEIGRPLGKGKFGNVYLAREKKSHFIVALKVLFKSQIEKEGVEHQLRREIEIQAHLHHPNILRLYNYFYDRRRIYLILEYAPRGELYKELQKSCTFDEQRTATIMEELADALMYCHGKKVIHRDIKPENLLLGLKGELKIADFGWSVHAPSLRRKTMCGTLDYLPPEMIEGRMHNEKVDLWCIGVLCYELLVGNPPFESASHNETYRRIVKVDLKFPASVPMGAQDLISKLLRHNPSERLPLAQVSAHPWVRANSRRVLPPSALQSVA
Protocol: as §1

[3] = test system: A549; test: Cellular activity A549; assay type: cell-based
Protocol: (§2) The susceptibility of a particular cell to treatment with the compounds according to the invention was determined by in vitro tests. Typically, a culture of the cell was combined with a compound according to the invention at various concentrations for a period of time that was sufficient to allow the active agents to induce cell death or to inhibit migration, usually between about one hour and one week. In vitro testing was carried out using cultivated cells from a biopsy sample. The viable cells remaining after the treatment then were counted.

[4] = test system: MiaPaca2; test: Cellular activity MiaPaca2; assay type: cell-based
Protocol: as §2

[5] = target: kinases (not incl. Aurora); test: Kinase inhibition profile (not incl. Aurora); assay type: biochemical; conditions: hit means >79% inhibition
Protocol: as §1
The Desktop Profiler utilizes the same principal as the LC 3000 for calculating percentage conversion of a substrate to product. Caliper Life Sciences provided proprietary flash frozen pre-made 384 well plates containing selected kinases. Each column in the 384 well plate contained a particular selected kinase. A second plate, the ‘substrate plate’ contained a mix of fluorescently labeled peptide substrate and ATP. These were arranged in columns so that transfer for substrate plate to enzyme plate provided the correct enzyme with the correct substrate/ATP concentration.
Compounds were added to a thawed enzyme plate in the desired format, in single concentrations. Reactions were initiated by transfer of the ubstrate/ATP mix from the substrate plate. The enzyme plate was incubated for 90 mins at 25 °C. The reaction was stopped by addition of […] of Stop Buffer (100 mM HEPES pH 7.5, 0.015% Brij-35, 10 mM EDTA (Sigma, E7889)).
Plates were read in a manner identical to that of the LC3000, and the ratio between substrate and product peaks provided the activity of the enzyme in that well. This was best represented by a plate heat map which colors each well by percent inhibition as compared to positive and negative controls (no inhibitors and no ATP respectively).

SMILES	IC50 [1]	IC50 [2]	IC50 ([3]; Homo sapiens)	IC50 ([4]; Homo sapiens, MIA PaCa-2)	Kinase Inhibition Profile (not incl. Aurora) # kinases hit/# kinases tested ([5]; at 1 μM)	Kinase Inhibition Profile (not incl. Aurora) # kinases hit/# kinases tested ([5]; at 10 μM)	IC50 [3]	IC50 ([4]; MiaPaca2)
NC(=O)[C@H]1[C@H]2C[C@H]3[C@H]1Nc1nc(ncc1F)Nc1cccc(c1)NC(=O)CS[C@@H]3C2 [drawing 221]	1 to 100 nM	1 to 100 nM	101 to 1000 nM	101 to 1000 nM	12/36 at 1	–	–	–
O=C(O)[C@H]1[C@H]2C[C@H]3[C@H]1Nc1nc(ncc1F)Nc1cccc(c1)OCCS[C@@H]3C2 [drawing 218]	1 to 100 nM	1 to 100 nM	> 6250 nM	> 6250 nM	–	8/36 at 10 μM	–	–
NC(=O)[C@H]1[C@H]2C[C@H]3[C@H]1Nc1nc(ncc1F)Nc1cccc(c1)OCCS[C@@H]3C2 [drawing 219]	1 to 100 nM	1 to 100 nM	1000 to 6250 nM	1000 to 6250 nM	11/36 at 1 μM	–	–	–
NC(=O)[C@H]1[C@H]2C[C@H]3[C@H]1Nc1nc(ncc1F)Nc1cccc(c1)CC[S+]([O-])[C@@H]3C2 (stereo partly drawn)	1 to 100 nM	1 to 100 nM	1000 to 6250 nM	1000 to 6250 nM	–	–	–	–
NC(=O)[C@H]1[C@@H]2CC3CNC(=O)c4cccc(c4)Nc4ncc(F)c(n4)N[C@@H]1[C@@H]3C2 (stereo partly drawn) [drawing 254]	1 to 100 nM	1 to 100 nM	1000 to 6250 nM	1000 to 6250 nM	1/76 at 1 μM	–	–	–
NC(=O)[C@H]1[C@@H]2CC3CNC(=O)c4cccc(c4)Nc4ncc(F)c(n4)N[C@@H]1[C@@H]3C2 (stereo partly drawn) [drawing 259]	1 to 100 nM	1 to 100 nM	–	–	1/76 at 1 μM	–	1000 to 6250 nM	1000 to 6250 nM
NC(=O)[C@H]1[C@H]2C[C@H]3[C@H]1Nc1nc(ncc1F)Nc1cccc(c1)CCS(=O)(=O)[C@@H]3C2	1 to 100 nM	1 to 100 nM	1000 to 6250 nM	1000 to 6250 nM	–	–	–	–
NC(=O)[C@H]1[C@@H]2CC3NNC(=O)Cc4cccc(c4)Nc4ncc(F)c(n4)N[C@@H]1[C@@H]3C2 (stereo partly drawn)	1 to 100 nM	1 to 100 nM	> 6250 nM	> 6250 nM	–	–	–	–
CCC1CC2CCCOc3cccc(c3)Nc3ncc(F)c(n3)N[C@H]2[C@H]1C(N)=O (stereo partly drawn)	101 to 1000 nM	101 to 1000 nM	–	–	0/36 at 1 uM	–	–	–
C=CC1CC2/C=C/COc3cccc(c3)Nc3ncc(F)c(n3)N[C@H]2[C@H]1C(N)=O (stereo partly drawn)	101 to 1000 nM	101 to 1000 nM	–	–	0/36	12/255	–	–
C=CC1CC2/C=C\COc3cccc(c3)Nc3ncc(F)c(n3)N[C@H]2[C@H]1C(N)=O (stereo partly drawn)	1 to 100 nM	1 to 100 nM	–	–	0/36 at 1 uM	–	–	–
N#Cc1ccc2cc1NC(=O)CS[C@@H]1C[C@@H]3C[C@H]1[C@@H](Nc1nc(ncc1F)N2)[C@H]3C(N)=O [drawing 223]	1 to 100 nM	101 to 1000 nM	> 6250 nM	> 6250 nM	12/38 at 1 μM	–	–	–
CCC1CC2/C=C\COc3cccc(c3)Nc3ncc(F)c(n3)N[C@H]2[C@H]1C(N)=O (stereo partly drawn)	1 to 100 nM	1 to 100 nM	–	–	1/36 at 1 uM	–	–	–

Second part, the molecule after the results:

IC50 [1]	IC50 [2]	IC50 ([3]; Homo sapiens)	IC50 ([4]; Homo sapiens, MIA PaCa-2)	Kinase Inhibition Profile (not incl. Aurora) # kinases hit/# kinases tested ([5]; at 1 μM)	Kinase Inhibition Profile (not incl. Aurora) # kinases hit/# kinases tested ([5]; at 10 μM)	IC50 [3]	IC50 ([4]; MiaPaca2)	SMILES
1 to 100 nM	1 to 100 nM	1 to 100 nM	1 to 100 nM	121/267 at 1 μM	–	–	–	CN1CCN(c2ccc3cc2[C@H](O)CS[C@@H]2C[C@@H]4C[C@H]2[C@@H](Nc2nc(ncc2F)N3)[C@H]4C(N)=O)CC1
101 to 1000 nM	101 to 1000 nM	> 6250 nM	1000 to 6250 nM	0/73 at 1 μM	–	–	–	CN1CCN(c2ccc3cc2C(=O)NC[C@@H]2C[C@@H]4C[C@H]2[C@@H](Nc2nc(ncc2F)N3)[C@H]4C(N)=O)CC1
1 to 100 nM	1 to 100 nM	1 to 100 nM	1 to 100 nM	121/267 at 1 μM	–	–	–	CN1CCN(c2ccc3cc2[C@@H](O)CS[C@@H]2C[C@@H]4C[C@H]2[C@@H](Nc2nc(ncc2F)N3)[C@H]4C(N)=O)CC1
101 to 1000 nM	1000 to 6250 nM	> 6250 nM	1000 to 6250 nM	0/73 at 1 μM	–	–	–	CN1CCN(c2ccc3cc2CC(=O)NC[C@@H]2C[C@@H]4C[C@H]2[C@@H](Nc2nc(ncc2F)N3)[C@H]4C(N)=O)CC1
1 to 100 nM	1 to 100 nM	101 to 1000 nM	101 to 1000 nM	–	–	–	–	CN1CCC(c2ccc3cc2OCCS[C@@H]2C[C@@H]4C[C@H]2[C@@H](Nc2nc(ncc2F)N3)[C@H]4C(N)=O)CC1
1 to 100 nM	1 to 100 nM	1000 to 6250 nM	1000 to 6250 nM	–	–	–	–	NC(=O)[C@H]1[C@H]2C[C@H]3[C@H]1Nc1nc(ncc1F)Nc1ccc4c(c1)CN(CC4)C(=O)CS[C@@H]3C2
1 to 100 nM	1 to 100 nM	1000 to 6250 nM	1000 to 6250 nM	–	–	–	–	NC(=O)[C@H]1[C@H]2C[C@H]3[C@H]1Nc1nc(ncc1F)Nc1cccc(c1)CCS[C@@H]3C2 [drawing 234]
1 to 100 nM	–	1000 to 6250 nM	101 to 1000 nM	14/264 at 1 μM	–	–	–	CN1CCN(c2cc3cc(c2)C(=O)NC[C@@H]2C[C@@H]4C[C@H]2[C@@H](Nc2nc(ncc2F)N3)[C@H]4C(N)=O)CC1
1 to 100 nM	1 to 100 nM	101 to 1000 nM	101 to 1000 nM	0/76 at 1 μM	–	–	–	NC(=O)[C@H]1[C@H]2C[C@H]3[C@H]1Nc1nc(ncc1F)Nc1cccc(c1)[C@H](O)CS[C@@H]3C2
1 to 100 nM	1 to 100 nM	1000 to 6250 nM	1000 to 6250 nM	2/36 at 1 μM	–	–	–	NC(=O)[C@H]1[C@H]2C[C@H]3[C@H]1Nc1nc(ncc1F)Nc1cccc(c1)C(=O)CS[C@@H]3C2 [drawing 214]
1 to 100 nM	1 to 100 nM	101 to 1000 nM	101 to 1000 nM	13/36 at 1 μM	–	–	–	CN1CCN(c2ccc3cc2NC(=O)CS[C@@H]2C[C@@H]4C[C@H]2[C@@H](Nc2nc(ncc2F)N3)[C@H]4C(N)=O)CC1 [drawing 222]
1 to 100 nM	1 to 100 nM	101 to 1000 nM	101 to 1000 nM	12/51 at 1 μM	–	–	–	CN1CCN(c2ccc3cc2OCCS[C@@H]2C[C@@H]4C[C@H]2[C@@H](Nc2nc(ncc2F)N3)[C@H]4C(N)=O)CC1 [drawing 220]
